The source of these data is ChEMBL document CHEMBL1156278, “Novel benzothiophene H1-antihistamines for the treatment of insomnia” (Bioorg Med Chem Lett, 2010).

Data set [1] concerns Rattus norvegicus. Kind of data set: Increase in REM sleep in CD IGS rat model of insomnia at 30 mg/kg, po after 4 hrs by EEG/EMG study relative to control. Type of data set: functional.
Data set [2] deals with Histamine H1 receptor (Homo sapiens, UniProt P35367). Nature of the data set: Displacement of [3H]pyrilamine from human histamine H1 receptor expressed in CHO Flp-In cells after 90 mins by scintillation counting. Particulars: read-out: Ki. The data set is classed as cell-based.
Data set [3] deals with T1, Muscarinic acetylcholine receptor M1 (Homo sapiens, UniProt P11229).
T1 sequence (P11229 whole entry): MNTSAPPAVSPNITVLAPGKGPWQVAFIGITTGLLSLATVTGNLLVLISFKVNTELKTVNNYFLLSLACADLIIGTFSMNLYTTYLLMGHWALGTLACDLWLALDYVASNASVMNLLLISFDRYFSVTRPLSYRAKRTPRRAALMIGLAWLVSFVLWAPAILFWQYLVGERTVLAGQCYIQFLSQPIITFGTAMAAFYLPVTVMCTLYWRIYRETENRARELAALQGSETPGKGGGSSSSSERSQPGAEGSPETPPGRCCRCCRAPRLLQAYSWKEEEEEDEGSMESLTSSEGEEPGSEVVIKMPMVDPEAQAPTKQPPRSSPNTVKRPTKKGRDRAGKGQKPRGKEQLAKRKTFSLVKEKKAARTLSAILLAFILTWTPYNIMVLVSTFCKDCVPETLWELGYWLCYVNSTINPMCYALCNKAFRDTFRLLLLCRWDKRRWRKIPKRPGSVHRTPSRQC
Nature of the data set: Displacement of [3H]N-methylscopolamine from human muscarinic M1 receptor expressed in CHO Flp-In cells after 90 mins by scintillation counting. The data set is classed as cell-based. As to conditions: read-out: Ki.

The target of data set [4] is Cytochrome P450 2D6 (Homo sapiens, UniProt P10635). Nature of the data set: Inhibition of recombinant CYP2D6 after 30 mins by fluorescence assay.
In data set [5] the target is Cytochrome P450 3A4 (Homo sapiens, UniProt P08684). Kind of data set: Inhibition of recombinant CYP3A4 after 30 mins by fluorescence assay.
The target in data set [6] is T2, Voltage-gated inwardly rectifying potassium channel KCNH2 (Homo sapiens, UniProt Q12809). Kind of data set: Displacement of [3H]Dofetilide from human ERG.
The target in data set [7] is T2, Voltage-gated inwardly rectifying potassium channel KCNH2. Nature of the data set: Inhibition of human ERG expressed in HEK cells assessed as blockade of potassium tail current by standard patch clamp analysis.
Data set [8] can be described thus: Apparent permeability across human Caco-2 cells. Type of data set: ADME, cell-based.
The nature of data set [9]: Drug level in rat plasma at 30 mg/kg, po after 4 hrs. The data set is classed as ADME, organism-based. Further details: dose 30 mg/kg, route oral.
Data set [10] can be described thus: Drug level in rat brain at 30 mg/kg, po after 4 hrs. Type of data set: ADME, organism-based. Also noted: dose 30 mg/kg, route oral. As to conditions: read-out: Drug uptake.
Data set [11] can be described thus: Ratio of drug level in rat brain to plasma at 30 mg/kg, po after 4 hrs. The data set is classed as ADME, organism-based. Further details: dose 30 mg/kg, route oral. Particulars: read-out: Ratio.
The nature of data set [12]: Activity at P-glycoprotein.
In data set [13] the test system is Rattus norvegicus. Nature of the data set: Increase in NREM sleep in CD IGS rat model of insomnia at 30 mg/kg, po after 4 hrs by EEG/EMG study relative to control. The data set is classed as functional.
Data set [14] relates to Rattus norvegicus. Nature of the data set: Increase in NREM sleep in CD IGS rat model of insomnia at 60 mg/kg, po after 4 hrs by EEG/EMG study relative to control. Type of data set: functional.
The test system of data set [15] is Rattus norvegicus. Nature of the data set: Effect on sleep-awake pattern in CD IGS rat model of insomnia assessed as latency to NREM sleep at 30 mg/kg, po by EEG/EMG study relative to control. Type of data set: functional.
Data set [16] has as its system Rattus norvegicus. Kind of data set: Effect on sleep-awake pattern in CD IGS rat model of insomnia assessed as latency to NREM sleep at 60 mg/kg, po by EEG/EMG study relative to control. The data set is classed as functional.
Data set [17] relates to Rattus norvegicus. Kind of data set: Effect on sleep-awake pattern in CD IGS rat model of insomnia assessed as longest 3 NREM bouts at 30 mg/kg, po after 6 hrs by EEG/EMG study relative to control. Type of data set: functional.
Data set [18] concerns Rattus norvegicus. Nature of the data set: Effect on sleep-awake pattern in CD IGS rat model of insomnia assessed as longest 3 NREM bouts at 60 mg/kg, po after 6 hrs by EEG/EMG study relative to control. Type of data set: functional.
Data set [19] relates to Rattus norvegicus. Nature of the data set: Increase in REM sleep in CD IGS rat model of insomnia at 60 mg/kg, po after 4 hrs by EEG/EMG study relative to control. Type of data set: functional.
Data set [20] has as its system Rattus norvegicus. Kind of data set: Effect on sleep-awake pattern in CD IGS rat model of insomnia assessed as latency to REM sleep at 30 mg/kg, po by EEG/EMG study relative to control. Type of data set: functional.
Data set [21] relates to Rattus norvegicus. Nature of the data set: Effect on sleep-awake pattern in CD IGS rat model of insomnia assessed as latency to REM sleep at 60 mg/kg, po by EEG/EMG study relative to control. The data set is classed as functional.
Data set [22] relates to Rattus norvegicus. Kind of data set: Effect on sleep-awake pattern in CD IGS rat model of insomnia assessed as longest 3 REM bouts at 30 mg/kg, po after 6 hrs by EEG/EMG study relative to control. The data set is classed as functional.
The subject of data set [23] is Rattus norvegicus. Kind of data set: Effect on sleep-awake pattern in CD IGS rat model of insomnia assessed as longest 3 REM bouts at 60 mg/kg, po after 6 hrs by EEG/EMG study relative to control. Type of data set: functional.
For data set [24], the system named is Caco-2. Nature of the data set: Ratio of permeability from apical to basolateral side over basolateral to apical side in human Caco-2 cells.
Data set [25] in a line: Systemic clearance in human at 0.1 mg/kg, iv by microdose study. The data set is classed as ADME, organism-based. Also noted: dose 0.1 mg/kg, route intravenous. As to conditions: in vivo.
Data set [26] can be described thus: AUC (0 to t) in human at 0.1 mg/kg, po by microdose study. The data set is classed as ADME, organism-based. Also noted: dose 0.1 mg/kg, route oral. As to conditions: plasma.
The nature of data set [27]: Half life in human at 0.1 mg/kg by microdose study. Type of data set: ADME, organism-based. Further details: dose 0.1 mg/kg. Particulars: in vivo.
The nature of data set [28]: Volume of distribution at steady state in human at 0.1 mg/kg by microdose study. Further details: dose 0.1 mg/kg. The data set is classed as ADME, organism-based. As to conditions: in vivo, read-out: Vdss.
Data set [29] can be described thus: Bioavailability in human at 0.1 mg/kg by microdose study. Type of data set: ADME, organism-based. As to conditions: in vivo.

Active and inactive are the calls of the source. No cut-off for these calls is given here. A value given as a limit tells only on which side of the number the result lay.

T2 sequence (Q12809 whole entry): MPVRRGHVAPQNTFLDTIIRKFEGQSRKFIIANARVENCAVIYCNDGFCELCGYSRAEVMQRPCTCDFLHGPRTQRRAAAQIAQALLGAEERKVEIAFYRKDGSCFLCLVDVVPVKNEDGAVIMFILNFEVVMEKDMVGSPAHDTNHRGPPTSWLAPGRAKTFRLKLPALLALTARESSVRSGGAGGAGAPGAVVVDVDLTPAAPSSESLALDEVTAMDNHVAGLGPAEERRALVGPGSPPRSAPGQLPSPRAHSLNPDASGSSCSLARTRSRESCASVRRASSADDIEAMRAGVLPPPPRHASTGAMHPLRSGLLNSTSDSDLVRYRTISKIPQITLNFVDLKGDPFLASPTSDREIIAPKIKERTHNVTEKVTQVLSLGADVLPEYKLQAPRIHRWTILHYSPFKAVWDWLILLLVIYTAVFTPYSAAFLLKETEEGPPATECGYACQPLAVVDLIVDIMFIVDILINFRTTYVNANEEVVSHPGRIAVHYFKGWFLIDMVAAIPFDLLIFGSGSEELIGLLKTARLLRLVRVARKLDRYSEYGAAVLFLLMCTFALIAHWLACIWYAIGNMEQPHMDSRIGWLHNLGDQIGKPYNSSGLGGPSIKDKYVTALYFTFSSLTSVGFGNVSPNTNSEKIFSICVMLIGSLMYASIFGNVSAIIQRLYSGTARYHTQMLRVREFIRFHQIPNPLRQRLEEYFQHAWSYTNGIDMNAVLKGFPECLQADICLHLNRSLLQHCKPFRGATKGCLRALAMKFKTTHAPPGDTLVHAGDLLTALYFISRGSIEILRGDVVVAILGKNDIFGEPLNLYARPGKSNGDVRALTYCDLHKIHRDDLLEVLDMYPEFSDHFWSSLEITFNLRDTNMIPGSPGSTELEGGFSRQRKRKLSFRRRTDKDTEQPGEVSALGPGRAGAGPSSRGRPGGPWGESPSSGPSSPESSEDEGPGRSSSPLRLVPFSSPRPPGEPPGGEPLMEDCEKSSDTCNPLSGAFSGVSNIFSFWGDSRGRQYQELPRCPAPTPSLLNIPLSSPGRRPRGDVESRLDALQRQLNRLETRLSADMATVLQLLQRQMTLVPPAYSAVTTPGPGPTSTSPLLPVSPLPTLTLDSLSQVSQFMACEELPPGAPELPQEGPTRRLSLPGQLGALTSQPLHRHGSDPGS
Chain of Histamine H1 receptor (P35367 whole entry): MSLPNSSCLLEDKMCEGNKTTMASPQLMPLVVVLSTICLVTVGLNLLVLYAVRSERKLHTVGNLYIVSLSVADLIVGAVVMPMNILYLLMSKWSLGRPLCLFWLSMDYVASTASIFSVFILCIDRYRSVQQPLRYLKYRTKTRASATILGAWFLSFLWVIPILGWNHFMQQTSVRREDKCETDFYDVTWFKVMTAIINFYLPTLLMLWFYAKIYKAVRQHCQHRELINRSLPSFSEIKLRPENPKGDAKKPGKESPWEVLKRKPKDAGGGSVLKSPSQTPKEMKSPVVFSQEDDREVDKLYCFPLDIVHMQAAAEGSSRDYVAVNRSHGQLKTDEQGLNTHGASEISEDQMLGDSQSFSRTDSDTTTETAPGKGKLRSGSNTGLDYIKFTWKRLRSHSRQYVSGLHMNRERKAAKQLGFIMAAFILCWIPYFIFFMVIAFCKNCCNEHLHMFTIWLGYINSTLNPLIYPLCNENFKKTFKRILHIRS
Chain of Cytochrome P450 3A4 (P08684 whole entry): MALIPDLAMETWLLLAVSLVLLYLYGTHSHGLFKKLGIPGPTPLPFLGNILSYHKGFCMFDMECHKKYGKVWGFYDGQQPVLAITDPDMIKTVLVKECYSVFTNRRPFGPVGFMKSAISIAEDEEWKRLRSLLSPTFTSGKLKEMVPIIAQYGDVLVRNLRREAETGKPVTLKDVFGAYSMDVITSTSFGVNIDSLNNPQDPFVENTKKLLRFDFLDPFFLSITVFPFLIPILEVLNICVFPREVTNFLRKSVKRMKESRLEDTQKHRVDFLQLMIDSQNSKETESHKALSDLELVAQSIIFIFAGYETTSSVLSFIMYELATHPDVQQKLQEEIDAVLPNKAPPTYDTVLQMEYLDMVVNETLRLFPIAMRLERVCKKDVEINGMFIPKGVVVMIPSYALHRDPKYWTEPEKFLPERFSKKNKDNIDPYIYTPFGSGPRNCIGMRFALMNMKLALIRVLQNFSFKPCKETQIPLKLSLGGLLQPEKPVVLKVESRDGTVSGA
Chain of Cytochrome P450 2D6 (P10635 whole entry): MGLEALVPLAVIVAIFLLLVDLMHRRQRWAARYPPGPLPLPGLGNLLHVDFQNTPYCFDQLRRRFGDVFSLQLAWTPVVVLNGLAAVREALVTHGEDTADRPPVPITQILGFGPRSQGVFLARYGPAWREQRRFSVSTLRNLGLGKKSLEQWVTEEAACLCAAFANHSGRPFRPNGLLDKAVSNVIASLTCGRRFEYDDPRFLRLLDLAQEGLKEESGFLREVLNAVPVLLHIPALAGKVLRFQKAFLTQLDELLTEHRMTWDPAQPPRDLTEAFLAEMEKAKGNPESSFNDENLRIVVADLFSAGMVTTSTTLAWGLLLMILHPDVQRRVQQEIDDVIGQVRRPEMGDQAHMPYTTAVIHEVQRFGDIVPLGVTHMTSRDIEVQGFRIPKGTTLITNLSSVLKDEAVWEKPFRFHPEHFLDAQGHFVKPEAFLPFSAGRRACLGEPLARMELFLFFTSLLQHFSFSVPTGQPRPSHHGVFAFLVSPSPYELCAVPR

For `COc1ncccc1[C@@H](C)c1c(CCN(C)C)sc2ccccc12`, the Activity in [1] was determined as 7%; in data set [13], 33.1%; in [14], 28.3%; in data set [15] it was 37 min; in data set [16], 49 min; in [17], 7 min. The Activity came out at 6.7 min in [18]; 6.8% in data set [19]; 56 min in [20]; 72 min in data set [21]; 2.3 min in [22]; 2.3 min in data set [23]. Also, the Ki in data set [2] is 0.0029 µM; in [3] it was more than 10 µM; in [6] it was more than 5 µM. Further, the IC50 is 9.6 µM in [4], more than 10 µM in [5] and 1.8 µM in data set [7]. For the same molecule, the Papp in data set [8] is more than 21.7 ×10⁻⁶ cm/s. The concentration at 4 h in [9] turned out to be 37.5 ng/mL; in data set [10], 347 ng/g. Also, the Kp at 4 h in [11] is 9. Moreover, the outcome in data set [12] was inactive. Moreover, the Ratio in [24] is recorded as more than 0.7.

`C[C@H](c1cccnc1F)c1c(CCN(C)C)sc2ccccc12`: the Activity is listed as 6.4% in [1]; 27.4% in [13]; 32% in [14]; 33 min in [15]; 45 min in [16]; 5.8 min in data set [17]. In addition, the Activity in [18] turned out to be 6.7 min; in data set [19], 6.6%; in data set [20], 49 min; in [21] it was 64 min; in data set [22], 2.1 min; in data set [23] it was 2.2 min. In addition, the Ki was 0.0017 µM in data set [2] and more than 10 µM in [3]. The apparent permeability (Papp) in data set [8] was more than 21.7 ×10⁻⁶ cm/s. Also, the concentration at 4 h in data set [9] came to 3 ng/mL; in [10], 83 ng/g. The Kp at 4 h in data set [11] was 26. Further, the outcome in data set [12] was inactive. The molecule further showed a clearance in [25] of 12.1 mL/min/kg. The molecule also displayed an AUC(0-t) in [26] of 0.64 ng·h/mL. In [27], this molecule showed a half-life of 13 h. Also, in data set [28], the Vd came out at 5.6 L/kg. Further, the bioavailability in [29] came out at 23%.
